Some test systems named below: SW-620 colon; SNB-19 CNS; RPMI-8226 leukemia; UACC-257 melanoma; TK-10 renal; ACHN renal; SF-295 CNS; NCI-H226 lung; CAKI-1 renal.
Common to all, as to assay: inhibition of tumour cell growth, NCI panel, 48 h

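Assay format: 96-well plates, 48-hour exposure. The concentration for full growth arrest is given as TGI.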

`CN(/N=C1\C(=O)Nc2ccccc21)c1ccccc1`: the TGI in the test on SW-620 colon, in the test with SNB-19 CNS, in the test with RPMI-8226 leukemia, in the test with UACC-257 melanoma, in the test on TK-10 renal and with ACHN renal was more than 100 µM each time. The TGI with SF-295 CNS, with NCI-H226 lung and in the test with CAKI-1 renal was more than 100 µM throughout.

As to `S=C(Cc1ccc2c(c1)Sc1ccccc1O2)N1CCOCC1`, the TGI in the test on SW-620 colon, in the test with SNB-19 CNS, with RPMI-8226 leukemia, in the test on UACC-257 melanoma, in the test on TK-10 renal and in the test on ACHN renal was more than 100 µM throughout. The TGI in the test on SF-295 CNS, with NCI-H226 lung and in the test on CAKI-1 renal was more than 100 µM throughout.

Take `COC(=O)/C=C(/C=C1/C(C#N)=C(N)N(c2ccc(Cl)cc2)C1(C)/C(=C\C(=O)OC)C(=O)OC)C(=O)OC` (stereo not given): the TGI with SW-620 colon was 30.8 µM; with SNB-19 CNS it was more than 100 µM; in the test with RPMI-8226 leukemia, more than 100 µM; in the test with UACC-257 melanoma, 35.8 µM; with TK-10 renal, 81 µM; in the test with ACHN renal, 76.8 µM. Further, the TGI in the test on SF-295 CNS is more than 100 µM; with NCI-H226 lung, 86.4 µM; in the test with CAKI-1 renal, 45.5 µM.

On to `C[n+]1cc2cc(O)c(O)cc2c2ccc3cc(O)c(O)cc3c21`, for which the TGI in the test on SW-620 colon was more than 100 µM; in the test on SNB-19 CNS, 16.5 µM; with RPMI-8226 leukemia it was more than 100 µM; with UACC-257 melanoma it was more than 100 µM; with TK-10 renal, more than 73.2 µM; in the test with ACHN renal it was more than 100 µM. Besides, the TGI was 38.8 µM in the test with SF-295 CNS, more than 48.2 µM in the test with NCI-H226 lung and more than 37.3 µM in the test with CAKI-1 renal.

`Cn1nc(-c2ccc(S(=O)(=O)/N=C(\NN)Nc3ccc(Cl)cc3)s2)cc1C(F)(F)F`: the TGI turned out to be 36.9 µM in the test on SW-620 colon; 30.2 µM in the test with SNB-19 CNS; 56 µM with RPMI-8226 leukemia; 34 µM in the test with UACC-257 melanoma; 35.6 µM with TK-10 renal; 33.8 µM with ACHN renal. Moreover, the TGI in the test with SF-295 CNS is 31.3 µM; with NCI-H226 lung, 32.6 µM; with CAKI-1 renal, 35.1 µM.

For the molecule `CCOC(=O)c1c(N2CCCC2)[nH]c(=O)c(C(c2ccc(OC)cc2)c2c(O)c(C(=O)OCC)c(N3CCCC3)[nH]c2=O)c1O`, the TGI with SW-620 colon, with SNB-19 CNS, in the test with RPMI-8226 leukemia, in the test with UACC-257 melanoma, in the test with TK-10 renal and with ACHN renal was more than 100 µM throughout. The results for the TGI with SF-295 CNS, with NCI-H226 lung and in the test with CAKI-1 renal were more than 100 µM, more than 100 µM and 71.1 µM, respectively.

With `O=C(/C=C/c1ccc(Cl)cc1)Oc1ccc(C=C2CCC/C(=C\c3ccc(OC(=O)/C=C/c4ccc(Cl)cc4)cc3)C2=O)cc1`, the TGI with SW-620 colon was more than 100 µM; with SNB-19 CNS, more than 100 µM; with RPMI-8226 leukemia, 97.1 µM; in the test with UACC-257 melanoma, more than 100 µM; in the test on TK-10 renal it was more than 100 µM; in the test on ACHN renal, more than 100 µM. Also, the TGI in the test on SF-295 CNS, in the test with NCI-H226 lung and in the test on CAKI-1 renal was more than 100 µM in each case.

`CN(C)c1ccc(/C=C(\NC(=O)c2ccccc2)C(=O)NC(CC(=O)O)C(=O)O)cc1` (stereo not given): the TGI with SW-620 colon, in the test on SNB-19 CNS, in the test with RPMI-8226 leukemia, in the test on UACC-257 melanoma, with TK-10 renal and with ACHN renal was more than 100 µM throughout. For the same molecule, the TGI in the test with SF-295 CNS, with NCI-H226 lung and in the test on CAKI-1 renal was more than 100 µM throughout.

As for `CC1=CC2C3(C)C(C)(C(C)=CP3(=O)c3c(C(C)C)cc(C(C)C)cc3C(C)C)C1P2(=O)c1c(C(C)C)cc(C(C)C)cc1C(C)C` (stereo not given), the TGI with SW-620 colon was found to be 13.6 µM; in the test on SNB-19 CNS, 15.8 µM; in the test with RPMI-8226 leukemia it was 3.02 µM; in the test on UACC-257 melanoma, 3.34 µM; with TK-10 renal, 7.34 µM; in the test on ACHN renal it was 8.96 µM. In addition, the results for the TGI with SF-295 CNS, in the test with NCI-H226 lung and in the test with CAKI-1 renal were 6.72 µM, 6.08 µM and 15.9 µM, respectively.

As for `COC1OC(C)C(NC(=O)OCC(Cl)(Cl)Cl)C2OC(C)(C)OC12` (stereo not given), the TGI in the test on SW-620 colon, with SNB-19 CNS, in the test with RPMI-8226 leukemia, with UACC-257 melanoma, with TK-10 renal and with ACHN renal was more than 100 µM each time. Also, the TGI in the test with SF-295 CNS, in the test with NCI-H226 lung and with CAKI-1 renal was more than 100 µM each time.

Consider `COc1ccc2c(c1)c1c(n2CCN2CCCCC2)-c2cccc(OC)c2CC1`, for which the TGI with SW-620 colon turned out to be 42.5 µM; in the test on SNB-19 CNS, 29.7 µM; in the test on RPMI-8226 leukemia, 35.5 µM; in the test on UACC-257 melanoma, 38 µM; in the test on TK-10 renal, 32.8 µM; in the test with ACHN renal it was 43 µM. For the same molecule, the TGI in the test with SF-295 CNS is more than 100 µM; with NCI-H226 lung, 24.1 µM; with CAKI-1 renal, 37.7 µM.

As for `c1ccc(C2=NC3OC2c2ccccc23)cc1` (stereo not given), the TGI with SW-620 colon, in the test with SNB-19 CNS, in the test with RPMI-8226 leukemia, in the test with UACC-257 melanoma, with TK-10 renal and in the test on ACHN renal was more than 10 µM each time. Further, the TGI in the test with SF-295 CNS, with NCI-H226 lung and with CAKI-1 renal was more than 10 µM throughout.

In the case of `Cc1ccc2cccc(-c3cccc4ccccc34)c2n1`, the TGI in the test with SW-620 colon was more than 100 µM; in the test with SNB-19 CNS, more than 100 µM; in the test on RPMI-8226 leukemia, 40.2 µM; in the test with UACC-257 melanoma, more than 100 µM; with TK-10 renal, 36.2 µM; with ACHN renal, more than 100 µM. Moreover, the TGI in the test with SF-295 CNS was 69.8 µM; with NCI-H226 lung, 74.5 µM; in the test on CAKI-1 renal, more than 100 µM.

For `COc1cccc(C2c3cc4c(cc3OC(O)C2C)OCO4)c1OC` (stereo not given), the TGI with SW-620 colon was 54 µM; with SNB-19 CNS, 74.2 µM; in the test with RPMI-8226 leukemia, 14.6 µM; in the test with UACC-257 melanoma it was 37.9 µM; with TK-10 renal it was 52 µM; in the test with ACHN renal it was 30.8 µM. Moreover, the TGI in the test with SF-295 CNS came to 17.3 µM; in the test on NCI-H226 lung, 24.8 µM; in the test with CAKI-1 renal it was 13.9 µM.

In the case of `Cc1c(C)n(-c2ccccc2)c2nc(S(C)=O)nc(S(C)=O)c12` (stereo not given), the TGI in the test with SW-620 colon was 3.86 µM; in the test with SNB-19 CNS, 31.3 µM; in the test with RPMI-8226 leukemia, 5.28 µM; with UACC-257 melanoma, 25.9 µM; in the test with TK-10 renal it was 7.36 µM; in the test with ACHN renal it was 18.5 µM. The TGI in the test on SF-295 CNS is 32.2 µM; with NCI-H226 lung, 36.2 µM; in the test on CAKI-1 renal, 2.66 µM.

The values above are taken from PubChem BioAssay (NCI).
